Data reported in paper PMC6748410, “A phase 2 study of an oral mTORC1/mTORC2 kinase inhibitor (CC-223) for non-pancreatic neuroendocrine tumors with or without carcinoid symptoms” (PLoS ONE, 2019).

Key:
[1] = 28-day GLP toxicology study, dog; format: in vivo
Description: A dose of 7.5 mg/day is proposed as the starting dose in this protocol. This dose is based on the recommendations in the March 2010 FDA Guidance for Industry entitled, “S9 Nonclinical Evaluation for Anticancer Pharmaceuticals,” where a start dose for first administration in humans should be either one-tenth the STD10 in rodents, or one-sixth of the HNSTD if the nonrodent is the most appropriate species. The conversion factors from the July 2005 FDA Guidance for Industry entitled, “Estimating the Maximum Safe Starting Dose in Initial Clinical Trials for Therapeutics in Adult Healthy Volunteers,” were used to convert the animal dose to the HED. The dose was converted to milligrams based on a 60-kg human body weight.
Species Animal Dose HED (mg/kg) HED (mg) Safety Factor Start Dose (mg) […]
Since the dog was identified as the most sensitive species in the 28-day GLP toxicology studies, the start dose for the study would be 8.2 mg/day. Based on available dosage strengths of the IP, a dose of 7.5 mg/day of CC-223 is deemed to be an acceptable starting dose for this initial trial in […]
Part B will consist of approximately 230 patients with selected tumor types to further assess the safety profile and provide preliminary efficacy information. […]

[2] = system: serum hormones (CgA, gastrin, glucagon, serotonin); experiment: Serum hormone changes from baseline; format: in vivo, human; settings: among 35 patients with elevated baseline levels in at least one hormone
Description: (§1) Central laboratories conducted serial stimulated blood biomarker assays in monocytes (CD14+) for p4E-BP1 and pPKB (also known as pAKT) for assessment of mTORC1 and mTORC2 inhibition, respectively. Monthly changes from baseline for chromogranin A (CgA), and for other serum hormones if elevated, were assayed locally.
This phase 1/2 study was not powered for inferential statistics and mostly descriptive statistics were used. All patients dosed with CC-223 were included in the safety analysis. The efficacy analysis included all patients completing at least one cycle of drug who had both baseline and one post-baseline tumor efficacy assessment, unless otherwise specified. Categorical baseline variables including tumor type-specific characteristics were summarized using frequency counts and percentage. Continuous demographic and baseline characteristic variables were summarized by descriptive statistics. A Wilcoxon signed rank test was used to analyse change from baseline in serum hormone levels at selected scheduled visits.

[3] = Rat; trial protocol; cited from earlier work
[4] = parameters: method as in PMID 26177599; settings: patients with advanced solid tumors; oral once daily; cited from earlier work
[5] = Dog; trial protocol; cited from earlier work
p4E-BP1 (mTORC1) = experiment: Stimulated blood biomarker assay in monocytes (CD14+) for p4E-BP1 (mTORC1 inhibition); format: in vivo, human
Description: as §1

[6] = system: mTORC1 and mTORC2 biomarkers; experiment: Target biomarker inhibition at 15 mg dose level (predicted, not tested); format: in vivo, human; settings: 15 mg dose level
[7] = parameters: method as in doi:10.1200/jco.2013.31.15_suppl.2606; settings: non-small cell lung cancer and hepatocellular carcinoma cohorts dosed at 45 mg; cited from earlier work

Structure (SMILES): CO[C@H]1CC[C@H](N2C(=O)CNc3ncc(-c4ccc(C(C)(C)O)nc4)nc32)CC1 [CC-223]
- HED (human equivalent dose) of HNSTD ([1]; 60-kg human body weight): 49 mg
- HED (human equivalent dose) of HNSTD ([1]; FDA conversion factors): 0.81 mg/kg
- Patients with ≥50% decline from baseline in CgA [2]: 7 patients
- Patients with ≥50% decline from baseline in gastrin [2]: 6 patients
- Patients with ≥50% decline from baseline in glucagon [2]: 3 patients
- Patients with ≥50% decline from baseline in serotonin [2]: 2 patients
- STD10 (severely toxic dose in 10% of the animals tested) [3]: 10 mg/kg
- Maximum tolerated dose (MTD) [4]: 45 mg/day
- HNSTD (highest non-severely toxic dose) [5]: 1.5 mg/kg
- p4E-BP1 median inhibition (p4E-BP1 (mTORC1); 30 mg, after multiple doses): 26%
- p4E-BP1 median inhibition (p4E-BP1 (mTORC1); 30 mg, following a single dose): 9%
- p4E-BP1 median inhibition (p4E-BP1 (mTORC1); 45 mg, 1.5 hours after a single dose): 37%
- p4E-BP1 median inhibition (p4E-BP1 (mTORC1); 45 mg, after multiple doses): 47%
- p4E-BP1 median biomarker inhibition relative to baseline (p4E-BP1 (mTORC1); across both dose level cohorts (45 mg or 30 mg), 1.5 hours after multiple dosing on day 15): > 26%
- Target biomarker inhibition [6]: modest
- Patients with dose reductions [7]: > 50%
